Measured values from paper PMC5494507, “γ‐Secretase inhibitors in cancer clinical trials are pharmacologically and functionally distinct” (EMBO Molecular Medicine, 2017).
Like-named read-outs stand apart in the source and are kept apart here.

Tests used:
Aβ40 = system: Aβ40; set-up: method as in ref Appendix Table S1 (Gavai et al, 2015; Dovey et al, 2001; Cook et al, 2010; Krop et al, 2012; Wei et al, 2010; Luistro et al, 2009; Mitani et al, 2012); details: ref Appendix Table S1 (Gavai et al, 2015; Dovey et al, 2001; Cook et al, 2010; Krop et al, 2012; Wei et al, 2010; Luistro et al, 2009; Mitani et al, 2012); read-out: Reported IC50s Aβ40; cited from earlier work
cAPPC100sub = experiment: Cell-based γ-secretase cleavage assay, cAPPC100sub stably overexpressing cells (Aβ ELISA); details: for low-dose potentiation of cleavage, cAPPC100sub: cAPPC100sub overexpressing cells
From the text: (§1) We next tested all GSIs on cAPPC100sub and full‐length APP stably overexpressing cells. […] The low‐dose potentiation of γ‐secretase cleavage was further mechanistically probed using in vitro assays with recombinant substrates and IP‐MS.
(§2) For the cell‐based assay, all substrates contain a human NOTCH4 signal peptide sequence ([…]), amyloid β peptide (Aβ1–25/K16A) epitope tag followed by the juxtamembrane region (JMD) of the given substrate and a FLAG tag ([…]) at the COOH‐terminal. K16A mutant was created to decrease potential α‐secretase cleavage. The cDNAs were generated by gene synthesis conducted by Genscript. A schematic representation of the substrates is provided in Fig 4A, and sequences of the cDNAs and the proteins are provided in Appendix Fig S6. For clarity, these substrates are referred to as cell‐based assay substrates (e.g., NOTCH1 is cNOTCH1sub). Substrate cDNAs were cloned into pCDNA3.1 (Invitrogen, Carlsbad, CA, USA) for expression in H4 cells (ATCC, Manassas, VA).
(§3) H4 cells were cultured in Opti‐mem media (Thermo‐Fisher) supplemented with Hyclone 6% fetal bovine serum (GE, Logan, Utah, USA) and 1% penicillin/streptomycin (Life Technologies, Grand Island, NY, USA). pCDNA3.1 plasmids containing the substrate cDNAs were transfected into H4 cells using FuGENE HD reagent (Madison, WI, USA). Stable cell lines were established using G418 selection. […] Cells and conditioned media were used for WB, IP, and ELISA.
(§4) Sandwich ELISAs used for Aβ detection were performed as previously described (Murphy et al, 1999; Ran et al, 2014). Briefly, Aβ and Aβ‐like peptides in conditioned media were captured with Ab5 antibody and detected with horseradish peroxidase labeled mAb 4G8 (Biolegend). Synthetic Aβ1‐40 was used as standard. All ELISAs were developed with TMB substrate (KPL, Gaithersburg, Maryland, USA). Bis‐Tris precast gels (Biorad, Hercules, CA, USA) were used for all SDS–PAGE. Monoclonal anti‐FLAG M2 antibody (Sigma) and Aβ1‐16 antibody 6E10 (Covance) were used for Western blotting at 1:1,000 dilution. Anti‐CD74 In‐1 antibody (BD Bioscience, San Jose, CA, USA) was used for A20 cell lysate Western blotting at dilution of 1:1,000. MDA‐MB‐231 cell extracts were prepared by lysing cells in RIPA buffer containing protease and phosphatase inhibitors. The lysates were kept on ice for 30 min and vortexed every 10 min, and then centrifuged at 4°C for 10 min at 1,000 g. The supernatants were collected, and protein concentrations were determined by Bradford Assay. Pan‐NOTCH1 antibody (C‐20) (Santa Cruz Biotechnology) and cleaved NOTCH1 (Val1744) antibody ([…]) were used at 1:500 and 1:100 dilution in the test of endogenous NOTCH1 inhibition with β‐actin expression used as loading control. β‐actin antibody was used at 1:1,000 dilution (Sigma). Band intensities normalized for actin using densitometry analysis with ImageJ Software (NIH, USA).

SPPL2a = biological target: T1, SPPL2a (Mus musculus, UniProt Q9JJF9); experiment: Endogenous CD74 P8 turnover in A20 cells (Western blot, In-1 antibody), biomarker for SPPL2a cleavage; format: cell-based; details: 16 h
T1 construct: To verify the finding in a non‐overexpressing cell line; endogenous in cells; host or cells: A20 (ATCC TIB-208)
T1 sequence (Q9JJF9 26-523): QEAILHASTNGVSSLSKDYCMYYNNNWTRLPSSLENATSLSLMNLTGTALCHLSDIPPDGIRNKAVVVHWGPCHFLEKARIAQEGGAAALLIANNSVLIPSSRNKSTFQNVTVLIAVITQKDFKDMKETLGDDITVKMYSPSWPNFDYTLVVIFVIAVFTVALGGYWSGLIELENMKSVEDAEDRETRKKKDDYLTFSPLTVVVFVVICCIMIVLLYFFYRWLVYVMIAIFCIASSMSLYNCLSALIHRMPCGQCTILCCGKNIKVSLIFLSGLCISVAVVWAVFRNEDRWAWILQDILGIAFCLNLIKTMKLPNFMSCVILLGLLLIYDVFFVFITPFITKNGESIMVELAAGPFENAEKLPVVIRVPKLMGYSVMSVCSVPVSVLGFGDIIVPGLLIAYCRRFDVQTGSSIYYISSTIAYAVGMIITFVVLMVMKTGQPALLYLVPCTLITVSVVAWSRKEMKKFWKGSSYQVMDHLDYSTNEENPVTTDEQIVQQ
Description: To verify the finding in a non‐overexpressing cell line, we applied the inhibitors to the mouse B lymphocyte cell line A20 (ATCC TIB‐208).
SPPL2a, SPPL2b, SPP, and chimeric substrate FBA were generated as previously described (Ran et al, 2015). A20 cells (TIB‐208; ATCC, Manassas, VA, USA) were cultured in RPMI‐1640 medium (ATCC) supplied with 10% fetal bovine serum, 1% penicillin/streptomycin, and 0.05 mM 2‐mercaptoethanol (Life Technologies). Various concentrations of GSIs and (ZLL)2‐ketone as indicated in figures were applied to transfected HEK 293t cells at 70–90% confluence or A20 cells at a density of 5 × 10^5 cells/ml with fresh media in 48‐well format for 16 h. Cells and conditioned media were used for WB, IP, and ELISA.
as §4

cNOTCH2sub = cNOTCH2sub (Homo sapiens, UniProt P49768); experiment: Cell-based γ-secretase cleavage assay, cNOTCH2sub in H4 cells (Aβ-like peptide ELISA); details: rank among the six GSIs, number in brackets
Description: Using these cell‐based γ‐secretase cleavage assays, we systematically investigated the substrate inhibition profile of BMS‐906024, MK‐0752, PF‐308414, RO4929097, Semagacestat, and DAPT. We treated H4 cells stably expressing cNOTCH1‐4sub with 4 pM to 10 μM of GSIs (Fig 5A and Table 2) and measured the Aβ‐like peptide secreted into the media.
as §2, §3, §4

full‐length APP = experiment: Cell-based γ-secretase cleavage assay, full-length APP stably overexpressing cells (Aβ ELISA); details: for IC50: full-length APP stably overexpressing cells, Aβ ELISA
Description: as §1, §3, §4

[1] = stably overexpressing cells, Aβ ELISA, read-out: IC50 cC100sub
[2] = value in parentheses, read-out: IC50 cC100sub, from curves excluding the Aβ level > 120%

Row | Compound | IC50 (Aβ40) | low-dose potentiation of cleavage, cAPPC100sub (cAPPC100sub) | IC50 (cAPPC100sub; [1]) | IC50 (cAPPC100sub; [2]) | stabilization of CD74 8 kDa NTF P8 (SPPL2a; 1,000 nM) | rank order of inhibition of cNOTCH2sub (cNOTCH2sub) | IC50 (full‐length APP) | increase of Aβ production from the cAPPC100sub (cAPPC100sub; 1–4 pM BMS‐906024) | stabilization of CD74 8 kDa NTF P8 (SPPL2a; 40 nM) | stabilization of CD74 8 kDa NTF P8 (SPPL2a; at the tested dose) | low-dose potentiation of cleavage, APP (full‐length APP; full-length APP overexpressing cells)
1 | CC(C)[C@H](O)C(=O)N[C@@H](C)C(=O)N[C@@H]1C(=O)N(C)CCc2ccccc21 [Semagacestat] | 12.1 nM | low‐dose potentiation of cleavage was observed | 175 nM | 105 nM | weak stabilization | [4] | 24.5 nM |  |  |  | 
2 | CN1C(=O)[C@@H](NC(=O)[C@H](CCC(F)(F)F)[C@H](CCC(F)(F)F)C(N)=O)N=C(c2ccccc2)c2ccccc21 [BMS‐906024] | 1.6 nM |  | 1.46 nM |  |  | [2] | 0.05 nM | ~ 1.5 fold | greatly stabilized |  | 
3 | O=C(O)CC[C@H]1CC[C@@](c2cc(F)ccc2F)(S(=O)(=O)c2ccc(Cl)cc2)CC1 [MK‐0752] | 5 nM | low‐dose potentiation of cleavage was observed | 336 nM | 154 nM |  | [5] | 9.03 nM |  |  | did not show stabilization activity | 
4 | CC(C)(C(=O)NCC(F)(F)C(F)(F)F)C(=O)N[C@@H]1C(=O)Nc2ccccc2-c2ccccc21 [RO4929097] | 14 nM | low‐dose potentiation of cleavage was observed | 26.6 nM | 24 nM |  | [3] | 1.41 nM |  | greatly stabilized |  | low‐dose potentiation of cleavage was observed
5 | CCC[C@H](N[C@H]1CCc2cc(F)cc(F)c2C1)C(=O)Nc1cn(C(C)(C)CNCC(C)(C)C)cn1 [PF‐3084014] | 6.2 nM |  | 2.47 nM | 1.34 nM |  | [1] | 0.07 nM |  | slightly stabilized |  | 
